# Measurements published in patent US20230183640A1, “METABOLIC INHIBITORS WITH EFFICACY FOR INHIBITING SULFIDE PRODUCTION IN HARSH ENVIRONMENTS” (MC (US) 3 LLC, priority 2020, published 2023).
# What was measured:
# Assay type in all cases: cell-based
# [1] = test system: Desulfovibrio alaskensis 14563; assay: H2S and Log (Growth) efficacy, 10 mL Serum Vial Method
# Method: (§1) A lyophilized Desulfovibrio alaskensis 14563, Desulfovibrio longus 51456, and Desulfovibrio gabonensis 700201 pure cultures received from ATCC were resuspended individually in 500 ul of MB 1250. Aseptically, the content was transferred to a 5-mL tube of MB1250 medium. The cultures were incubated in an anaerobic chamber at 30° C. for 72 hrs. Subsequently, an individual stock culture with a final concentration of 25% glycerol were prepared by adding equal volumes of culture and 50% glycerol. 1 ml of the cultures were then transferred to 2-ml cryogenic vials and stored at −80° C. The purity of the stock cultures was evaluated through PCR, by amplifying the 16S rDNA region, and thus, it was verified that the original ATCC sample was a pure culture. 48-hour cultures of ATCC Desulfovibrio alaskensis 14563, Desulfovibrio longus 51456, and Desulfovibrio gabonensis 700201 were prepared in an anaerobic chamber. Each culture was prepared as a 1:10 culture by taking 1 milliliter (mL) of a pure culture and inoculating 9 milliliters (mL) of fresh MB1250 media. The Desulfovibrio alaskensis 14563 and Desulfovibrio gabonensis 700201 were all grown at 30° C. and the Desulfovibrio longus 51456 culture was grown at 35° C.
# After the 48-hour incubation, 600 microliters (μL) were taken from the Desulfovibrio alaskensis 14563 culture and optical density (OD) was measured using a Thermofisher Spectronic 200 Spectrophotometer at 600 nm. Each culture was diluted to 0.05 OD600 in fresh MB1250 media and 5 mL of culture solution is transferred to 10 mL Vials and compound Cis stock solution is added. In Table 4 and 5, the concentrations of the compound C1 used for the experiments are listed. Each experiment was done with at least three replicates for different treatments and non-treatment controls. At 2 days, 3 days and 5 days, enumeration plates were made, and sulfide samples were taken in triplicate.
# The enumerations were done in triplicate having 20 μL taken from each vial and placing them into 3 wells of first row in a 96-well plate. Then, the same serial dilution process was done with the test plate procedure as described in 96-well plate method. These enumerations were read after 7 days of growth at 30° C. in the anaerobic chamber. For the sulfide assay, 9 μL were taken from each vial and placed in 3 wells with 2% zinc acetate. The assay procedure was the same as described in 96-well plate method.
# [2] = test system: Desulfovibrio alaskensis 14563; assay: H2S and Log (Growth) efficacy against SRB, 96-Well Plate Method
# Method: as §1
# After the 48-hour incubation, 600 microliters (μL) were taken from each culture and optical density (OD) was measured using a Thermofisher Spectronic 200 Spectrophotometer at 600 nm. Each culture was diluted to 0.05 OD600 in fresh MB1250 media and added to the 96 well plates. Edge wells were not used due to their inherent variability and evaporation of the media. Each of the components were added at their respective concentrations for a final volume of 500 μL per well. In Table 3, 6 and 7, the concentrations of the compound used for the experiments are listed. Each experiment was done with at least three replicates for different treatments and non-treatment controls. […] Plates were then sealed with a titer-top and placed into anaerobic boxes and incubated in an anaerobic incubator at 30° C.
# At each time point, sulfide samples were taken, and enumeration plates were made. Enumeration plates were made to determine the log growth in each dosed sample. For this process, enumeration plates were prepared by adding 180 μL fresh media MB1250 containing 0.01 wt % ferrous ammonium sulfate. 20 μL was taken from each well of the challenge plates and transferred to the enumeration plates using a 20-200 μL multichannel pipette. Enumeration plates were mixed three times using the multichannel pipette and serial diluted down the plate tenfold (20 μL into 180 μL). This serial dilution process was repeated for all challenge plate rows giving a total of 6 enumeration plates.
# After 7 days these enumeration plates were read. The ferrous ammonium sulfate in each plate would be converted to iron sulfide, changing wells with SRB growth from clear to black. By counting the number of black wells in a row, the log growth from the original well in the challenge plate can be determined.
# To determine hydrogen sulfide production in each sample, sulfide samples were also taken from each challenge plate. From each well, 9 μL were taken and added to 60 μL of 2% zinc acetate with 0.02% acetic acid. Then, 180 μL of milliQ water was added. 60 μL of stock solution 1 containing 64% sulfuric acid, <1% Dimethyl-4-phenylenediamine (DMPD), water to 100% was added to each well on the plates. This was followed by 3 μL of stock solution 3 containing 50% Iron (III) chloride. All chemicals are ordered from Fisher Scientific and used as received. These were mixed three times and read after 15 minutes. The plates were read at 670 nm using a Biotek microplate reader. Absorbance readings were converted to mM using a standard curve and this was converted to parts per million using the molar mass of sulfur. The standard curves were made using sodium sulfide nonahydrate solutions to give final solutions of 0, 0.125, 0.25 0.5, 1.0, and 1.5 ppm.
# [3] = test system: various microorganism strains; assay: Comparative testing of C1 in aerobic and anaerobic conditions; conditions: Examples 2 and 3
# Text: Therefore, to further analyze the efficacy of compound C1, comparative testing was done in both aerobic and anaerobic conditions using additional bacteria cultures. For aerobic conditions testing, the following strains were used: Escherichia coli, Pseudomonas aeruginosa, Enterobacter aerogenes, and Klebsiella pneumoniae. For anaerobic testing, the following strains were used: Klebsiella pneumoniae, Enterobacter aerogenes, Escherichia coli, and Enterococcus faecalis.
smiles,measurement,setting,value
O=C(CN1C(=O)c2cccc3cccc(c23)C1=O)NO [C1],H2S,"[1]; 2 days, 0.09 PPM",233.1 PPM
same,Log (Growth),"[1]; 2 days, 0.09 PPM",7.9
same,H2S,"[1]; 2 days, 0.19 PPM",202.1 PPM
same,Log (Growth),"[1]; 2 days, 0.19 PPM",8.0
same,H2S,"[1]; 2 days, 0.38 PPM",170.4 PPM
same,Log (Growth),"[1]; 2 days, 0.38 PPM",7.8
same,H2S,"[1]; 2 days, 0.75 PPM",121.6 PPM
same,Log (Growth),"[1]; 2 days, 0.75 PPM",7.2
same,H2S,"[1]; 3 days, 0.75 PPM",190.2 PPM
same,Log (Growth),"[1]; 3 days, 0.75 PPM",7.4
same,H2S,"[1]; 3 days, 1.5 PPM",50.1 PPM
same,Log (Growth),"[1]; 3 days, 1.5 PPM",4.8
same,H2S,"[1]; 3 days, 3.0 PPM",23.1 PPM
same,Log (Growth),"[1]; 3 days, 3.0 PPM",4.0
same,H2S,"[1]; 3 days, 6.0 PPM",19.2 PPM
same,Log (Growth),"[1]; 3 days, 6.0 PPM",0.0
same,H2S,"[1]; 5 days, 0.75 PPM",253.3 PPM
same,Log (Growth),"[1]; 5 days, 0.75 PPM",7.9
same,H2S,"[1]; 5 days, 1.5 PPM",69.9 PPM
same,Log (Growth),"[1]; 5 days, 1.5 PPM",6.2
same,H2S,"[1]; 5 days, 3.0 PPM",19.5 PPM
same,Log (Growth),"[1]; 5 days, 3.0 PPM",1.0
same,H2S,"[1]; 5 days, 6.0 PPM",15 PPM
same,Log (Growth),"[1]; 5 days, 6.0 PPM",0.0
same,H2S,"[2]; 3 days, 6.4 PPM",15.5 PPM
same,Log (Growth),"[2]; 3 days, 6.4 PPM",2.7
same,H2S,"[2]; 3 days, 12.8 PPM",13.5 PPM
same,Log (Growth),"[2]; 3 days, 12.8 PPM",2.0
same,H2S,"[2]; 3 days, 25.6 PPM",15.1 PPM
same,Log (Growth),"[2]; 3 days, 25.6 PPM",0.0
same,H2S,"[2]; 3 days, 51.3 PPM",15.4 PPM
same,Log (Growth),"[2]; 3 days, 51.3 PPM",0.0
same,H2S,"[2]; 3 days, 102.5 PPM",13.6 PPM
same,Log (Growth),"[2]; 3 days, 102.5 PPM",0.3
same,H2S,"[2]; 3 days, 205.0 PPM",12.7 PPM
same,Log (Growth),"[2]; 3 days, 205.0 PPM",0.3
same,H2S,"[2]; 6 days, 6.4 PPM",18.1 PPM
same,Log (Growth),"[2]; 6 days, 6.4 PPM",3.3
same,H2S,"[2]; 6 days, 12.8 PPM",23.5 PPM
same,Log (Growth),"[2]; 6 days, 12.8 PPM",2.7
same,H2S,"[2]; 6 days, 25.6 PPM",8.8 PPM
same,Log (Growth),"[2]; 6 days, 25.6 PPM",1.0
same,H2S,"[2]; 6 days, 51.3 PPM",8.3 PPM
same,Log (Growth),"[2]; 6 days, 51.3 PPM",0.0
same,H2S,"[2]; 6 days, 102.5 PPM",8.7 PPM
same,Log (Growth),"[2]; 6 days, 102.5 PPM",0.0
same,H2S,"[2]; 6 days, 205.0 PPM",9.0 PPM
same,Log (Growth),"[2]; 6 days, 205.0 PPM",0.0
same,inhibition under anaerobic as opposed to aerobic conditions,[3],preferentially inhibited hydrogen sulfide production under anaerobic conditions
same,killing of the various microorganism strains,[3],completely killing
